Results taken from PubChem BioAssay AID1645848.
≈ marks a conversion by molar mass, not a printed value.

Conditions: buffer; pH 7.4; 6.0 h; 150.0 µM

Row | Compound | solubility kinetic
1 | Cc1ccc(C(=O)Nc2ccc3oc(-c4cccnc4)nc3c2)cc1[N+](=O)[O-] | < 1 µg/mL
2 | Cc1ccc(-c2nc3ccccc3o2)cc1NC(=O)COc1ccccc1 | < 1 µg/mL
3 | O=C(Nc1cccc(C(F)(F)F)c1)c1ccccc1NC(=O)C1CCCCC1 | < 1 µg/mL
4 | COc1ccnc(NC(=S)N2CCN(c3ccc(Cl)c(Cl)c3)CC2)c1 | 3.16 µg/mL (≈ 7.96 µM)
5 | Cn1cc(-c2nc(Nc3ccc(F)c(F)c3)c3ccccc3n2)cn1 | < 1 µg/mL
6 | CN1CCN(C(c2ccccc2)c2ccccc2)CC1 | > 39 µg/mL
7 | CCOC(=O)c1ccc(NC(=O)c2sc3nc4c(cc3c2N)N2CCC4CC2)cc1 | < 1 µg/mL
8 | COc1ccc(C2Nc3ccccc3C(=O)N2Cc2cccnc2)cc1COc1c(C)cc(NC(C)=O)cc1C (stereo not given) | 1.69 µg/mL (≈ 3.16 µM)
9 | Cc1ccc(S(=O)(=O)Nc2ccc(Br)cc2C(=O)Nc2nc(-c3ccccc3)cs2)cc1 | < 1 µg/mL
10 | O=C(Nc1ncc(Cc2ccc(C(F)(F)F)cc2)s1)c1ccc(-c2ccc([N+](=O)[O-])cc2)o1 | < 1 µg/mL
11 | Cc1ccc(SC2=NS(=O)(=O)c3ccccc32)c(C)c1 | < 1 µg/mL
12 | COCCN1CCNc2nc(COc3ccc(C(C)C)cc3)n(Cc3ccccc3)c2C1=O | < 1 µg/mL
13 | O=C(C1CCN(c2nc(-c3ccc(Br)cc3)cs2)CC1)N1CCOCC1 | 7.27 µg/mL (≈ 16.7 µM)
14 | C[C@H]1CN(C(=O)c2nn(C)c3ccccc23)C[C@@H]1c1nc(-c2ccncc2)no1 | 34.9 µg/mL (≈ 89.8 µM)
15 | Cc1cccc(-n2cnc3cc(C(=O)N4CCCC(C)(C)C4)ccc32)c1 | 37.7 µg/mL (≈ 109 µM)
16 | O=C1Nc2ccc(Cl)cc2/C1=C\c1cc(Cl)c(O)c(Cl)c1 | 19 µg/mL (≈ 55.8 µM)
17 | O=C(Nc1ccc2c(N3CCCCC3)ncnc2c1)c1cc(F)cc(F)c1 | < 1 µg/mL
18 | CCc1ccccc1-n1c(SCC(=O)Nc2ccc(C)cc2)nc2n[nH]c(C)c2c1=N | < 1 µg/mL
19 | Cl.N=c1c2c(n(Cc3ccccc3)c3c1CCC3)CCC2 | > 39 µg/mL
20 | CN1CCCN(C(c2ccccc2)c2ccc(Cl)cc2)CC1 (stereo not given) | 36.9 µg/mL (≈ 117 µM)
21 | O=C(Nc1ccc(S(=O)(=O)Nc2nccs2)cc1)c1ccc2ccccc2c1 | < 1 µg/mL
22 | Cc1cc(N=Nc2ccc(S(=O)(=O)Nc3ccccn3)cc2)c(N)cc1O | 3.69 µg/mL (≈ 9.63 µM)
23 | O=C(Nc1ccc([S+](=O)([O-])Nc2nccs2)cc1)c1ncn[nH]1 | > 52 µg/mL
24 | O=[S+]([O-])(Nc1ccccc1)c1ccc(NCc2cccc(C(F)(F)F)c2Cl)cc1 | < 1 µg/mL
25 | Cc1ccc(S(=O)(=O)Nc2ccc(C(=O)Nc3nc(-c4ccccc4)cs3)cc2Cl)cc1 | < 1 µg/mL

Row | Compound | solubility kinetic
26 | O=c1[nH]cnc2nc[nH]c12 | 8.8 µg/mL (≈ 64.7 µM)
27 | O=S(=O)(Nc1nc2n(n1)C(c1ccccc1)C=C(c1ccc(Cl)cc1)N2)c1ccccc1 (stereo not given) | 1.09 µg/mL (≈ 2.36 µM)
28 | O=C(Nc1ccc(S(=O)(=O)Nc2nccs2)cc1)c1cc(-c2ccccc2)nc2ccccc12 | 0.098 µg/mL (≈ 0.201 µM)
29 | C=C1c2cccc(O)c2C(O)=C2C(=O)[C@]3(O)C(O)=C(C(N)=O)C(=O)[C@@H](N(C)C)[C@@H]3[C@@H](O)[C@H]12 | > 65 µg/mL
30 | CCOc1ccccc1C(=O)Nc1cccnc1C(=O)Nc1cccc(S(=O)(=O)C(F)(F)F)c1 | < 1 µg/mL
31 | CCCNC(=O)c1ccc2c(c1)ncn2-c1cc(C)cc(C)c1 | < 1 µg/mL
32 | CCCCn1cnc2cc(NC(=O)c3cc(OC)c(OC)c(OC)c3)ccc21 | 48.1 µg/mL (≈ 125 µM)
33 | O=C(NCCc1cnc[nH]1)c1ccc(-c2ncc3cnc(-c4cccc(F)c4)cn23)cc1 | 33.7 µg/mL (≈ 79.1 µM)
34 | Cc1ccnc(N=C(N)N2CCN(c3cccc(C(F)(F)F)c3)CC2)c1 | 24.4 µg/mL (≈ 67.2 µM)
35 | Cc1cccc([C@H]2[C@@H]3C=CC[C@@H](C)[C@@H]3C(=O)N2Cc2ccccc2)c1 | < 1 µg/mL
36 | CCOC(=O)c1nc(Nc2ccc(N3CCC(C)CC3)cc2)c2ccccc2n1 | 2.18 µg/mL (≈ 5.59 µM)
37 | COc1ccc(C(=O)CCN(C)C)cc1F | > 33 µg/mL
38 | COc1cc(Nc2nc(-c3ccncc3)nc3ccccc23)ccc1NS(C)(=O)=O | < 1 µg/mL
39 | C[C@]1(CO)CN(c2cc(C(=O)Nc3ccc4c(c3)-c3c(c(C(N)=O)nn3-c3ccc(F)cc3)CC4)c(Cl)cn2)C[C@@]1(C)CO | 18.5 µg/mL (≈ 29.8 µM)
40 | Cc1cc(-c2ccc(C)c(S(=O)(=O)NCC3CCN(Cc4ccc(F)cc4)CC3)c2)on1 | 40.5 µg/mL (≈ 88.5 µM)
41 | Cc1ccc(-c2cc(C(=O)NCc3cnn(C)c3C)c3cc(Br)ccc3n2)cc1 | < 1 µg/mL
42 | CN(C)C(=O)c1nc(-c2ccc(Cl)cc2Cl)c2cnccn12 | > 59 µg/mL
43 | Cc1nn2c(c1-c1ccccc1-c1ccccc1)N(Cc1ccccc1)CCC2 | 4.07 µg/mL (≈ 10.7 µM)
44 | CCn1c(C)c(C(C)=O)c(C)c1C(=O)Nc1cccc([S+](=O)([O-])N(C)C)c1 | 43.4 µg/mL (≈ 111 µM)
45 | CCOc1ccc(CCNC(=O)c2cc3cccnc3n2Cc2cccc(C)c2)cc1OCC | < 1 µg/mL
46 | CC(C)c1ccccc1-c1ncc(F)c(NCC2CCN(c3cnccn3)C2)n1 (stereo not given) | 32.1 µg/mL (≈ 81.7 µM)
47 | CCc1oc2ccccc2c1C(=O)c1cc(Br)c(O)c(Br)c1 | > 62 µg/mL
48 | CNc1sc(-c2cccc3ccccc23)nc1C#N | < 1 µg/mL
49 | CC(C)COc1ccc(-c2ccc(=O)n(CC(=O)NCCc3ccccc3)n2)cc1 | < 1 µg/mL
50 | Cc1ccc(-c2cc(C(=O)Nc3ccc(-n4cccn4)cc3)c3ccccc3n2)cc1C | < 1 µg/mL
